The target of one test is T1, PIP4K2C (Homo sapiens, UniProt Q8TBX8).
T1 sequence (Q8TBX8 1-421): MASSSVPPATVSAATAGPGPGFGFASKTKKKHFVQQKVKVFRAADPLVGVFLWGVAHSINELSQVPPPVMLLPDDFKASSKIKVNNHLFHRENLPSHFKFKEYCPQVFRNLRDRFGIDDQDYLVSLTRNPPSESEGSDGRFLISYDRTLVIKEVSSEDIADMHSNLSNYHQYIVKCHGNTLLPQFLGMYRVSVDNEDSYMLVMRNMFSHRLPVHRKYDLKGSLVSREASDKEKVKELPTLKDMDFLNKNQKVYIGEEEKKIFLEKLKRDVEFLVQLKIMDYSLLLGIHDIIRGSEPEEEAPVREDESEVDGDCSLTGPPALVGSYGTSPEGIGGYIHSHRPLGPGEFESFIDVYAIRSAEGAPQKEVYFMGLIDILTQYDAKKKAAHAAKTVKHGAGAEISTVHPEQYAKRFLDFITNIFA
The test is described as follows: HiBiT PIP4K2C degradation assay in MOLT-4 cells (endogenous PIP4K2C C-terminally tagged with HiBiT). The class given is cell-based. More on the design: untagged in primary human PBMCs and monocyte-derived dendritic cells. Conditions: 6 hours of incubation time, rather than 24 hours; MOLT-4, top concentration 10 micromolar; read-out: HiBIT-degradation MOLT4 PIP4k2C DC50 (6 hours, marked *). The gist of the method:
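Endogenous PIP4K2C was C-terminally HiBiT-tagged by CRISPR-Cas9 in MOLT-4 cells, which were treated with a 10-point, 3-fold dilution series from 10 micromolar in duplicate for 24 or 6 hours at 37 C. Remaining protein was read by HiBiT lytic luminescence, and DC50 came from a Hill fit.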
For the molecule `O=C1CCC(Nc2ccc(C3CCN(C4CCN(C(=O)O[C@H]5CC[C@H](Nc6ncc(F)c(-c7cccc(N8CCCCC8)c7)n6)CC5)CC4)CC3)c(F)c2)C(=O)N1` (stereo partly drawn) [Compound 689, trans-4-((5-fluoro-4-(3-(piperidin-1-yl)phenyl)pyrimidin-2-yl)amino)cyclohexyl 4-(4-((2,6-dioxopiperidin-3-yl)amino)-2-fluorophenyl)-[1,4′-bipiperidine]-1′-carboxylate], the DC50 is less than 500 nM.

As to `O=C1CC[C@@H](Nc2ccc(N3CCC(N4CCC(O)(C(=O)N[C@H]5CC[C@H](Nc6ncc(F)c(-c7cccc(-n8ccccc8=O)c7)n6)CC5)CC4)CC3)c(F)c2)C(=O)N1` (single isomer, unassigned) [Compound 595], the DC50 is less than 500 nM.

Regarding `O=C1CCC(Nc2ccc(N3CCN(C[C@H]4CC[C@H](CC(=O)N[C@H]5CC[C@H](Nc6ncc(F)c(-c7cccc(-c8ccc[nH]c8=O)c7)n6)CC5)CC4)CC3)c(F)c2)C(=O)N1` (stereo partly drawn) [Compound 703, trans-2-((1r,4R)-4-((4-(4-((2,6-dioxopiperidin-3-yl)amino)-2-fluorophenyl)piperazin-1-yl)methyl)cyclohexyl)-N-((1r,4R)-4-((5-fluoro-4-(3-(2-oxo-1,2-dihydropyridin-3-yl)phenyl)pyrimidin-2-yl)amino)cyclohexyl)acetamide], the DC50 is less than 500 nM.

With `O=C1CCC(Nc2ccc(C3CCN(C[C@H]4CC[C@H](COC(=O)N5CCC(Nc6ncc(F)c(-c7cccc(-c8ccccc8)c7)n6)CC5)CC4)CC3)c(F)c2)C(=O)N1` (stereo partly drawn) [Compound 640, trans-(4-((4-(4-((2,6-dioxopiperidin-3-yl)amino)-2-fluorophenyl)piperidin-1-yl)methyl)cyclohexyl)methyl 4-((4-([1,1′-biphenyl]-3-yl)-5-fluoropyrimidin-2-yl)amino)piperidine-1-carboxylate], the DC50 is less than 500 nM.

For `O=C1CCC(Nc2ccc(C3CCN(C[C@H]4CC[C@H](C(=O)N5CCC(Nc6ncc(F)c(-c7cccc(N8CCCOC8=O)c7)n6)CC5)CC4)CC3)c(F)c2)C(=O)N1` (stereo partly drawn) [Compound 684, trans-3-((3-fluoro-4-(1-((4-(4-((5-fluoro-4-(3-(2-oxo-1,3-oxazinan-3-yl)phenyl)pyrimidin-2-yl)amino)piperidine-1-carbonyl)cyclohexyl)methyl)piperidin-4-yl)phenyl)amino)piperidine-2,6-dione], the DC50 was less than 500 nM.

Consider `O=C1CCC(Nc2ccc(C3CCN([C@H]4CC[C@H](C(=O)N[C@H]5CC[C@H](Nc6ncc(F)c(-c7cccc(-n8ccccc8=O)n7)n6)CC5)CC4)CC3)c(F)c2)C(=O)N1` (stereo partly drawn) [Compound 567, trans-(1r,4R)-4-(4-(4-((2,6-dioxopiperidin-3-yl)amino)-2-fluorophenyl)piperidin-1-yl)-N-((1r,4R)-4-((5-fluoro-4-(2-oxo-2H-[1,2′-bipyridin]-6′-yl)pyrimidin-2-yl)amino)cyclohexyl)cyclohexane-1-carboxamide], for which the DC50 was less than 500 nM.

For `O=C1CCC(Nc2ccc(C3CCN(CC4(O)CCN(C(=O)[C@H]5CC[C@H](Nc6ncc(F)c(-c7cccc(C8CC8)c7)n6)CC5)CC4)CC3)c(F)c2)C(=O)N1` (stereo partly drawn) [Compound 518, trans-3-((4-(1-((1-(4-((4-(3-cyclopropylphenyl)-5-fluoropyrimidin-2-yl)amino)cyclohexane-1-carbonyl)-4-hydroxypiperidin-4-yl)methyl)piperidin-4-yl)-3-fluorophenyl)amino)piperidine-2,6-dione], the DC50 was less than 500 nM.

In the case of `O=C1CC[C@@H](Nc2ccc(C3CCN(CC4(O)CCN(C(=O)[C@H]5CC[C@H](Nc6ncc(F)c(-c7cccc(-n8ccccc8=O)c7)n6)CC5)CC4)CC3)c(F)c2)C(=O)N1` (single isomer, unassigned) [Compound 442], the DC50 was less than 500 nM.

In the case of `O=C1CCC(Nc2ccc(C3CCN([C@H]4CC[C@H](NC(=O)[C@H]5CC[C@H](Nc6ncc(F)c(-c7cccc(-c8ccc[nH]c8=O)c7)n6)CC5)CC4)CC3)c(F)c2)C(=O)N1` (stereo partly drawn) [Compound 402, trans-(1r,4R)—N-((1r,4R)-4-(4-(4-((2,6-dioxopiperidin-3-yl)amino)-2-fluorophenyl)piperidin-1-yl)cyclohexyl)-4-((5-fluoro-4-(3-(2-oxo-1,2-dihydropyridin-3-yl)phenyl)pyrimidin-2-yl)amino)cyclohexane-1-carboxamide], the DC50 was less than 500 nM.

With `O=C1CCC(Nc2ccc(C3CCN([C@H]4CC[C@H](NC(=O)[C@H]5CC[C@H](Nc6ncc(F)c(-c7cccc(N8CCCOC8=O)c7)n6)CC5)CC4)CC3)c(F)c2)C(=O)N1` (stereo partly drawn) [Compound 563, trans-N-(trans-4-(4-(4-((2,6-dioxopiperidin-3-yl)amino)-2-fluorophenyl)piperidin-1-yl)cyclohexyl)-4-((5-fluoro-4-(3-(2-oxo-1,3-oxazinan-3-yl)phenyl)pyrimidin-2-yl)amino)cyclohexane-1-carboxamide], the DC50 was less than 500 nM.

As to `O=C1CCC(Nc2ccc(N3CCN(CC4CCN(C(=O)[C@H]5CC[C@H](Nc6ncc(F)c(-c7cccc(C8CC8)c7)n6)CC5)CC4)CC3)c(F)c2)C(=O)N1` (stereo partly drawn) [Compound 555, trans-3-[4-[4-[[1-[4-[[4-(3-cyclopropylphenyl)-5-fluoro-pyrimidin-2-yl]amino]cyclohexanecarbonyl]-4-piperidyl]methyl]piperazin-1-yl]-3-fluoro-anilino]piperidine-2,6-dione], the DC50 was less than 500 nM.

In the case of `Cn1nc(C2CCC(=O)NC2=O)c2ccc(C3CCN(CCN4CCC(C(=O)N[C@H]5CC[C@H](Nc6ncc(F)c(-c7cccc(-n8ccccc8=O)c7)n6)CC5)CC4)CC3)cc21` (mixture of isomers) [Compound 534, 1-(2-(4-(3-(2,6-dioxopiperidin-3-yl)-1-methyl-1H-indazol-6-yl)piperidin-1-yl)ethyl)-N-((1r,4r)-4-((5-fluoro-4-(3-(2-oxopyridin-1(2H)-yl)phenyl)pyrimidin-2-yl)amino)cyclohexyl)piperidine-4-carboxamide], the DC50 is less than 500 nM.

As to `CN(C(=O)[C@H]1CC[C@H](N2CCC(c3ccc(NC4CCC(=O)NC4=O)cc3F)CC2)CC1)[C@H]1CC[C@H](Nc2ncc(F)c(-c3cccc(-n4ccccc4=O)c3)n2)CC1` (stereo partly drawn) [Compound 653, trans-4-(4-(4-((2,6-dioxopiperidin-3-yl)amino)-2-fluorophenyl)piperidin-1-yl)-N-((trans)-4-((5-fluoro-4-(3-(2-oxopyridin-1 (2H)-yl)phenyl)pyrimidin-2-yl)amino)cyclohexyl)-N-methylcyclohexane-1-carboxamide], the DC50 was less than 500 nM.

The test is the same for the next values; noted with them: 24 hours incubation, MOLT-4, top concentration 10 micromolar; read-out: HiBIT-degradation MOLT4 PIP4k2C 24 hours DC50.
For `Cn1c(=O)n(C2CCC(=O)NC2=O)c2ccc(C3CCN(CC4CCN(CC(=O)N5CCC(Nc6ncc(Cl)c(-c7cccc(-c8ccccc8)c7)n6)CC5)CC4)CC3)cc21` (stereo not drawn) [Compound 47, 3-(5-(1-((1-(2-(4-((4-([1,1′-biphenyl]-3-yl)-5-chloropyrimidin-2-yl)amino)piperidin-1-yl)-2-oxoethyl)piperidin-4-yl)methyl)piperidin-4-yl)-3-methyl-2-oxo-2,3-dihydro-1H-benzo[d]imidazol-1-yl)piperidine-2,6-dione], the DC50 is less than 500 nM.

As for `O=C1CCC(n2c(=O)oc3cc(C4CCN(CC5CCN(CC(=O)N6CCC(Nc7ncc(F)c(-c8cccc(N9CCCOC9=O)c8)n7)CC6)CC5)CC4)ccc32)C(=O)N1` (stereo not drawn) [Compound 371, 3-(6-(1-((1-(2-(4-((5-fluoro-4-(3-(2-oxo-1,3-oxazinan-3-yl)phenyl)pyrimidin-2-yl)amino)piperidin-1-yl)-2-oxoethyl)piperidin-4-yl)methyl)piperidin-4-yl)-2-oxobenzo[d]oxazol-3 (2H)-yl)piperidine-2,6-dione], the DC50 was less than 500 nM.

Turning to `O=C1CCC(N2Cc3cc(C4CCN(CCC5CCN(C(=O)[C@H]6CCC[C@@H](Nc7ncc(Cl)c(-c8cccc(-c9ccccc9)c8)n7)C6)CC5)CC4)ccc3C2=O)C(=O)N1` (relative stereo) [Compound 62, cis-3-(5-(1-(2-(1-(3-((4-([1,1′-biphenyl]-3-yl)-5-chloropyrimidin-2-yl)amino)cyclohexane-1-carbonyl)piperidin-4-yl)ethyl)piperidin-4-yl)-1-oxoisoindolin-2-yl)piperidine-2,6-dione], the DC50 is less than 500 nM.

In the case of `O=C1CCC(n2c(=O)oc3cc(N4CCC(CCN5CCC(C(=O)N[C@H]6CC[C@H](Nc7ncc(F)c(-c8cccc(-n9ccccc9=O)c8)n7)CC6)CC5)CC4)ccc32)C(=O)N1` (stereo partly drawn) [Compound 329, trans-1-[2-[1-[3-(2,6-dioxo-3-piperidyl)-2-oxo-1,3-benzoxazol-6-yl]-4-piperidyl]ethyl]-N-[4-[[5-fluoro-4-[3-(2-oxo-1-pyridyl)phenyl]pyrimidin-2-yl]amino]cyclohexyl]piperidine-4-carboxamide], the DC50 fell in the range of 1000 to 5000 nM.

Consider `Cn1c(=O)n(C2CCC(=O)NC2=O)c2ccc(C3CCN(C(=O)CN4CCC(C(=O)N5CCC(Nc6ncc(Cl)c(-c7cccc(-c8ccccc8)c7)n6)CC5)CC4)CC3)cc21` (stereo not drawn) [Compound 46, 3-(5-(1-(2-(4-(4-((4-([1,1′-biphenyl]-3-yl)-5-chloropyrimidin-2-yl)amino)piperidine-1-carbonyl)piperidin-1-yl)acetyl)piperidin-4-yl)-3-methyl-2-oxo-2,3-dihydro-1H-benzo[d]imidazol-1-yl)piperidine-2,6-dione], for which the DC50 is less than 500 nM.

Source of the values: patent publication US20260355196A1, “INHIBITORS AND DEGRADERS OF PIP4K PROTEIN” (Larkspur Biosciences, Inc., priority 2023, published 2026).
